According to a compilation of properties of binary mixtures (doi:10.1016/j.molliq.2018.05.059):

Experiment: xn = mol fraction of the nth substance listed
Settings: 298 K, 101 kPa

CC(=O)[O-].CCC[N+]1(C)CCN(C)CC1 + CC#N
electrical conductivity (x2 = 0.806): 1.82 S/m
electrical conductivity (x2 = 0.819): 1.89 S/m
electrical conductivity (x2 = 0.832): 1.95 S/m
electrical conductivity (x2 = 0.843): 1.98 S/m
electrical conductivity (x2 = 0.852): 1.98 S/m
electrical conductivity (x2 = 0.859): 2.04 S/m
electrical conductivity (x2 = 0.874): 2.01 S/m
electrical conductivity (x2 = 0.884): 2.04 S/m
electrical conductivity (x2 = 0.895): 2.06 S/m
electrical conductivity (x2 = 0.902): 2.06 S/m
electrical conductivity (x2 = 0.919): 2.04 S/m
electrical conductivity (x2 = 0.931): 2.01 S/m
electrical conductivity (x2 = 0.937): 1.94 S/m
electrical conductivity (x2 = 0.95): 1.85 S/m

CC(O)C(=O)[O-].CCC[N+]1(C)CCN(C)CC1 + CC#N
electrical conductivity (x2 = 0.808): 1.52 S/m
electrical conductivity (x2 = 0.835): 1.72 S/m
electrical conductivity (x2 = 0.856): 1.83 S/m
electrical conductivity (x2 = 0.872): 1.91 S/m
electrical conductivity (x2 = 0.89): 1.99 S/m
electrical conductivity (x2 = 0.898): 1.99 S/m
electrical conductivity (x2 = 0.907): 2.04 S/m
electrical conductivity (x2 = 0.918): 2.05 S/m
electrical conductivity (x2 = 0.927): 2.05 S/m
electrical conductivity (x2 = 0.939): 2.01 S/m
electrical conductivity (x2 = 0.945): 1.96 S/m
